Several values for one entry are separate records, joined by “and”; a condition that tells them apart may be missing. Equal values may be shown once.
Columns and labels:
Type in all cases: cell-based
[1] = tested on: WI-38 normal human fibroblast cells; experiment: MTT cytotoxicity assay on normal fibroblasts; settings: WI-38 normal fibroblast cells, 24 h, mean ± SEM
Procedure: (§1) The antiproliferation and cytotoxicity were assessed using 3-(4,5-dimethylthiazol-2-yl)−2,5-diphenyltetrazolium bromide (MTT, Serva) colorimetric assay. All tested cancer cell lines were seeded at a density of 20,000 cells per well in 96-well plates and allowed to adhere overnight. The attached cells were treated with five serial dilutions (100, 50, 5, 0.5, and 0.1 μM) in triplicate. These concentrations were prepared by diluting the stock solutions with serum-free culture media. The negative control cells were those treated with 0.1% DMSO solvent alone. The treated cells were handled in reduced light and maintained under standard culture growth conditions for 24 h. After the incubation period, MTT powder was prepared as a stock solution (5 mg/mL), and 20 μL of the MTT working reagent (final concentration 0.5 mg/mL) was added to each well. This was followed by incubation with MTT reagent for 4 h in a humidified atmosphere (37 °C, 5% CO2) with subsequent addition of 150 μL of DMSO solubilizing solvent and incubation for 20 min. The absorbance of solubilized violet formazan crystals was measured at 570 nm with a Biotek 800 TS microplate reader. IC50 was calculated as the concentration of retinoid that produced 50% cell growth inhibition. For cytotoxicity assessment, WI-38 normal human fibroblast cells were used for the calculation of SI, which is the ratio of IC50 retinoid (WI-38)/IC50 retinoid (cancer cell line).

Caco-2 = experiment: MTT anti-proliferative assay; settings: Homo sapiens; Caco-2, MTT, 24 h, mean ± SEM
Procedure: as §1

HCT-116 = experiment: MTT anti-proliferative assay; settings: Homo sapiens; HCT-116, MTT, 24 h, mean ± SEM
Procedure: as §1

HepG-2 = experiment: MTT anti-proliferative assay; settings: Homo sapiens, HepG2; HepG-2, MTT, 24 h, mean ± SEM
Procedure: as §1

MCF-7 = experiment: MTT anti-proliferative assay; settings: Homo sapiens, MCF7; MCF-7, MTT, 24 h, mean ± SEM
Procedure: as §1

MDA-MB231 = experiment: MTT anti-proliferative assay; settings: Homo sapiens, MDA-MB-231, 24 h, mean ± SEM
Procedure: as §1

PC-3 = experiment: MTT anti-proliferative assay; settings: Homo sapiens; PC-3, MTT, 24 h, mean ± SEM
Procedure: as §1

Caco-2 cancer cells [2] = experiment: Apoptosis assay Annexin V/PI flow cytometry; settings: Caco-2, IC50 dose, 24 h, AV/PI
Procedure: The standard protocol used in HSBR was performed. […] Cells were rinsed with 1 mL of binding buffer; the cells were again suspended in phosphate-buffered saline (PBS) (Lonza). 100 µL of cell suspension was incubated with 1 µL of FITC-labeled Annexin-V and 5 µL of PI for 15 min at 4 °C in the dark. The suspension was then mixed with 400 µL of ice-cold binding buffer, and each sample's apoptotic cells were analyzed using a Cytoflex flow cytometer (Beckman Coulter, USA), and CytExpert software (version 2.4.0.28) was employed for data analysis.

Caco-2 cancer cells [3] = experiment: Cell cycle assay PI staining flow cytometry; settings: Caco-2, IC50 dose, 24 h
Procedure: The standard protocol used in HSBR was performed. […] Cells were concentrated at 1500 xg and suspended in 50 μg/ml propidium iodide (PI) staining solution and 20 µg/ml RNaseA to identify cells with a sub-G1 DNA content. Cytoflex flow cytometer (Beckman Coulter, USA) was used, and CytExpert software (version 2.4.0.28) was employed for data analysis. The gating strategy used to eliminate doublets depends on plotting the population against a 2D contour plot in four quadrants, referred to as Q1(LL), Q2 (LR), Q3 (UL), and Q4 (UR), that illustrates the spread of the Annexin-FITC-H core cell population against PI PE-H.

[4] = tested on: CRABPI gene in Caco-2 cells; experiment: Gene expression RT-qPCR; settings: Caco-2, IC50 dose, 24 h, relative to 0.1% DMSO, normalized to GAPDH
Procedure: (§2) The gene expression analysis was performed using real-time quantitative PCR (RT-qPCR), as previously documented. After incubation, cells were harvested, and total RNA was extracted using the Favor-PrepTM Blood/Cultured Cell Total RNA Purification Mini kit (Favorgen Biotech Corp., Ping-Tung, Taiwan). The purified RNA was then reverse transcribed into the first-strand cDNA using the Revert Aid First-Strand cDNA Synthesis Kit (Thermo Scientific, Waltham, MA, USA). All qPCR reactions were carried out using the […] SYBR® Green qPCR Kit (Willowfort, Nottingham, UK). Differential gene expression was performed using the 2ˆ^−ΔΔCT method utilizing GAPDH as a reference gene.

[5] = tested on: Caspase-3 gene in Caco-2 cells; experiment: Gene expression RT-qPCR; settings: Caco-2, IC50 dose, 24 h, relative to 0.1% DMSO, normalized to GAPDH
Procedure: as §2

[6] = tested on: Cyt-C gene in Caco-2 cells; experiment: Gene expression RT-qPCR; settings: Caco-2, IC50 dose, 24 h, relative to 0.1% DMSO, normalized to GAPDH
Procedure: as §2

[7] = tested on: RAR-γ gene in Caco-2 cells; experiment: Gene expression RT-qPCR; settings: Caco-2, IC50 dose, 24 h, relative to 0.1% DMSO, normalized to GAPDH
Procedure: as §2

[8] = tested on: total ATPase in Caco-2 cells; experiment: Total ATPase activity, malachite green colorimetric; settings: Caco-2, IC50 dose, 24 h; 0.1% DMSO control normalized to 100%
Procedure: (§3) The total activity of ATPase and calcium-independent ATPase activity was quantified colorimetrically as described by our previous protocol. […] The inorganic phosphate (Pi) liberated after the hydrolysis of ATP by ATPase enzymes was complexed into a colored product in one step after the addition of a mixed reagent containing malachite green, ammonium molybdate, and polyvinyl alcohol (2:1:1). The intensity of absorbance at 630 nm was measured using the BioTek 800 TS absorbance plate reader (USA) and was directly proportional to the quantity of liberated Pi. In order to eliminate any color due to the non-enzymatic hydrolysis of ATP, control reactions were made using only ATP in the reaction buffer, and the absorbance intensity was then subtracted from the readings of the samples and standards.

[9] = tested on: calcium-independent ATPases in Caco-2 cells; experiment: Calcium-independent ATPase activity, malachite green colorimetric; settings: Caco-2, IC50 dose, 24 h; 0.1% DMSO control normalized to 100%
Procedure: as §3

IL-10 in Caco-2 cells = experiment: Intracellular IL-10 ELISA; settings: Caco-2, IC50 dose, 24 h, vs DMSO control
Procedure: For IL-10. Moreover, IL-6 measurements and cell pellets were lysed using RIPA buffer, and the total lysate was collected. The total protein was estimated to use commercially available ELISA kits as per the manufacturer’s instructions. ELISA plates were coated and used for analysis according to the previously used protocol using capture antibody (IL-6, Cat. No.: RAB0307 [57] and IL-10, Cat. No.: RAB1060 [58]), followed by blocking using 5% BSA in PBS-Tween buffer for 1 h. After incubating with samples for 2 h, a secondary […] antibody was added and kept for incubation for 2 h. Streptavidin-HRP reagent was then added to the plates, followed by the addition of TMB solution. Finally, the reaction was stopped using 2 N H2SO4, and the color was measured using the BioTek 800 TS absorbance plate reader (USA) at 450 nm wavelengths, and the protein was quantified.

[10] = tested on: RAR-α, RAR-β, RAR-γ proteins in Caco-2 cells; experiment: Western blotting of RAR proteins; settings: Caco-2, IC50 dose, 24 h, normalized to β-actin
Procedure: Using the previously outlined protocol, the western blot technique was used to determine the expression of RAR-α (Cat. No. E6Z6 K, cell signaling, USA), RAR-β (Cat. No. PP-H4338-00, R&D systems, USA) and RAR- γ (Cat. No. D3 A4, cell signaling, USA) in Caco-2 cells. […] Following incubation, floating adhered cells were separated and lysed. The Caco-2 cell lysate was immediately collected, subjected to sonication, and centrifuged for 15 min at 12,000 × g. The total soluble protein content was measured colorimetrically using the PierceTM 660 nm Assay (Thermo Scientific, Waltham, MA, USA) after the resultant supernatant was separated. The Gel documentation system (Geldoc-it, UVP, England) was applied for data analysis using Totallab analysis software (Ver.1.0.1) (ww.totallab.com).

[11] = tested on: different cancer cell lines; experiment: MTT anti-proliferative assay, whole panel statements; settings: 24 h, read-out: IC50 across different cancer cell lines
Procedure: as §1, with “For cytotoxicity assessment, WI-38 normal human fibroblast cells were used for the calculation of SI, which is the ratio of IC50 retinoid (WI-38)/IC50 retinoid (cancer cell line).” left out

| Structure (SMILES) | IC50 [1] | IC50 (Caco-2) | IC50 (HCT-116) | IC50 (HepG-2) | IC50 (MCF-7) | IC50 (MDA-MB231) | IC50 (PC-3) | % Early apoptotic cells (LR) (Caco-2 cancer cells [2]) | % Late apoptotic cells (UL) (Caco-2 cancer cells [2]) | % Necrotic cells (UR) (Caco-2 cancer cells [2]) | % Viable cells (LL) (Caco-2 cancer cells [2]) | % G0-G1 (Caco-2 cancer cells [3]) | % G2M (Caco-2 cancer cells [3]) | % S (Caco-2 cancer cells [3]) | % SubG0-G1 (Caco-2 cancer cells [3]) | CRABPI gene expression fold change [4] | caspase-3 gene expression fold change [5] | Cyt-C gene expression fold change [6] | total ATPase activity [8] | ca+2-independent ATPase activity [9] | further results |
| --- | --- | --- | --- | --- | --- | --- | --- | --- | --- | --- | --- | --- | --- | --- | --- | --- | --- | --- | --- | --- | --- |
| COC(=O)c1ccc2cc(-c3ccc4c(c3)CCCN4)ccc2c1 [Compound 3a, Methyl 6-(1,2,3,4-tetrahydroquinolin-6-yl)−2-naphthoate] | 39.2 ± 4.7 µM | 9.58 ± 1.1 µM | 10.2 ± 3.8 µM | 6.37 ± 1 µM | 13.8 ± 2.4 µM | 2.33 ± 0.6 µM | 18.9 ± 4 µM | 47.37 ± 3.9 % | 0.30% | 51.38 ± 3.6 % | 0.95% | 23.90 ± 8.4% | 2.41 ± 0.3% | 4.13 ± 1.2% | 70.02% and 70.02 ± 4.7 % | 2.4 ± 0.1 fold | 8.5 ± 0.4 fold | did not show any overexpression | 43.9% | 40.0% | RAR-γ gene expression fold change [7]: 4.5 ± 0.2 fold; intracellular IL-10 level change (IL-10 in Caco-2 cells): additional significant reduction |
| O=C(O)c1ccc2cc(-c3ccc4c(c3)CCCN4)ccc2c1 [Compound 4a, 6-(1,2,3,4-tetrahydroquinolin-6-yl)−2-naphthoic acid] | 43.7 ± 4.2 µM | 47.3 ± 6.2 µM | 133 ± 6.8 µM | 53 ± 4.9 µM | 64.8 ± 5.4 µM | 2.42 ± 1.3 µM | 2.78 ± 0.3 µM | 23.44% and 23.44 ± 2.3 % | 0.37% | 75.13% and 75.13 ± 6.8 % | 1.06 ± 0.1% | 18.77 ± 4.8% | 2.26 ± 0.4% | 3.53 ± 1.3% | 75.83% and 75.83 ± 6.4 % |  | did not show any significant increase | did not show any overexpression | 23.7% | 13.9% | RAR protein expression (western blot) [10]: overexpression of all RARs; intracellular IL-10 level change (IL-10 in Caco-2 cells): did not show any significant reduction |
| COC(=O)c1ccc2cc(-c3ccc4c(c3)CCCO4)ccc2c1 [Compound 3b, Methyl 6-(chroman-6-yl)−2-naphthoate] | 29.2 ± 2.1 µM | 14.4 ± 0.36 µM | 52.9 ± 4.3 µM | 12 ± 2.6 µM | 12.2 ± 3.2 µM | 2.09 ± 0.1 µM | 4.6 ± 1.7 µM | 60.06 ± 5.4 % | 0.49% | 37.78% and 37.78 ± 2.7 % | 1.68 ± 0.1% | 19.65 ± 2.7% | 1.74 ± 0.1% | 3.31 ± 1.1% | 75.62% and 75.62 ± 7.4 % | 9.9 ± 0.4 fold | did not show any significant increase | did not show any overexpression | 41% | 36.2% | IC50 [11]: ≤ 50 µM; RAR-γ gene expression fold change [7]: 2.4 ± 0.1 fold |
